For 27 molecules, Results results are on record in US20240402196A1 (Exact Sciences Corporation, priority 2018, published 2024).

In experiment [1] the target is T1, hemoglobin in stool samples (Homo sapiens, UniProt P68871+P69905). Description: 3-Day shipping simulation, hemoglobin % recovery by ELISA.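 Also: stool samples put through shipping stress in a thermal cycler, hemoglobin quantified by ELISA before and after, stability given as post-stress % of the pre-stress level.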 Also noted: from tissue; host or cells: stool samples.
T1 sequence (P69905 2-142 limits assumed): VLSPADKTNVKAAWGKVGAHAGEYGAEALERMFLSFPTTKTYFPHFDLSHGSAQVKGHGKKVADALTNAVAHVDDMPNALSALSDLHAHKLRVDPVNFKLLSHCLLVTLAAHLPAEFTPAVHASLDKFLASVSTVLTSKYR
T1 sequence (P68871 2-147 limits assumed): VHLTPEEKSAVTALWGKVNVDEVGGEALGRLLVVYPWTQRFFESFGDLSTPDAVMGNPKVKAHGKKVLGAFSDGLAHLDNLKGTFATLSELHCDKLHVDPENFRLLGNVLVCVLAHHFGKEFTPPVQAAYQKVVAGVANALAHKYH
Experiment [2] deals with T1, hemoglobin in stool samples. In words: Accelerated shipping simulation (35C 16 hour challenge), hemoglobin % recovery by ELISA.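 Also: stool hemoglobin measured by ELISA before and after thermal-cycler shipping stress, stability given as percent of pre-stress hemoglobin recovered afterwards.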 Also noted: from tissue; host or cells: stool samples.

Counter-ions that a name gives are not always drawn.

Take `Oc1ccc(C=Cc2cc(O)cc(O)c2)cc1` [Resveratrol]: the Results result in experiment [1] (Additive Concentration 10 mM), in experiment [1] (additive concentration 5 mM) and in experiment [1] (additive concentration 20 mM) was “No improvement” each time.
For `O=C([O-])CNCO.[Na+]` [Soduim hyrdoxylmethyl glycinate], the Results result in experiment [1] (additive concentration 10 mM), in experiment [1] (additive concentration 25 mM), in experiment [1] (additive concentration 50 mM), in experiment [1] (additive concentration 75 mM) and in experiment [1] (additive concentration 90 mM) was “No Improvement” throughout.
For `Cn1sccc1=O` [Methylisothiazolone], the Results entry in experiment [1] (Additive Concentration 0.0001%), in experiment [1] (Additive Concentration 0.0002%), in experiment [1] (Additive Concentration 0.0010%), in experiment [1] (Additive Concentration 0.0020%) and in experiment [1] (additive concentration 0.00005%) was “No improvement” each time.
Turning to `Cc1ncc(CO)c(CO)c1O` [Vitamine B6 in HCl], the Results result in experiment [1] (additive concentration 0.5 mM), in experiment [1] (additive concentration 1 mM) and in experiment [1] (additive concentration 2 mM) was “No improvement” in each case.
In the case of `[Cl-].[Cl-].[Zn+2]` [Zinc Chloride], the Results entry in experiment [1] (additive concentration 1 mM), in experiment [1] (additive concentration 10 mM) and in experiment [1] (additive concentration 25 mM) was “No Improvement” in each case.
As to `CCC(=O)[O-].CCC(=O)[O-].[Ca+2]` [Calcium Propionate], the Results result in experiment [1] (additive concentration 5 mM), in experiment [1] (additive concentration 10 mM), in experiment [1] (additive concentration 20 mM), in experiment [1] (additive concentration 30 mM), in experiment [1] (additive concentration 40 mM) and in experiment [1] (additive concentration 50 mM) was “Calcium cation shows” in each case.
Turning to `[Cl][Ni][Cl]` [Nickel Chloride], the Results entry in experiment [1] (additive concentration 1 mM), in experiment [1] (additive concentration 10 mM) and in experiment [1] (additive concentration 25 mM) was “No Improvement” in each case.
Regarding `O=[N+]([O-])C1(Br)COCOC1` [Bronidox], the Results result in experiment [1] (Additive Concentration 0.0002%), in experiment [1] (Additive Concentration 0.0010%) and in experiment [1] (Additive Concentration 0.0020%) was “No improvement” throughout.
In the case of `C=CC1=C(C)/C(=C/C2=NC(=C\c3[nH]c(/C=C4\NC(=O)C(C)=C4C=C)c(C)c3CCC(=O)O)/C(CCC(=O)O)=C2C)NC1=O` [Biliverdin], the Results entry in experiment [2] (additive concentration 0.00003%), in experiment [2] (additive concentration 0.00030%), in experiment [2] (additive concentration 0.00300%) and in experiment [2] (additive concentration 0.03000%) was “No Improvement” throughout.
Regarding `N[C@@H](CCC(=O)N[C@@H](CS)C(=O)NCC(=O)O)C(=O)O` [Glutathione], the Results entry in experiment [2] (additive concentration 10 uM), in experiment [2] (additive concentration 100 uM), in experiment [2] (additive concentration 1 mM) and in experiment [2] (additive concentration 3 mM) was “No Improvement” throughout.
As for `O=S(=O)([O-])CS(=O)(=O)[O-].[K+].[K+]` [Methanedisulfonic acid dipotassium salt], the Results result in experiment [2] (additive concentration 10.69 mM) was “No Improvement”.
As for `O=C([O-])CC[C@@H](C(=O)[O-])N(CC(=O)[O-])CC(=O)[O-].[Na+].[Na+].[Na+].[Na+]`, the Results result in experiment [2] (Additive Concentration 0.1 uM), in experiment [2] (Additive Concentration 1 uM), in experiment [2] (additive concentration 5 uM), in experiment [2] (additive concentration 0.01 mM), in experiment [2] (additive concentration 0.1 mM) and in experiment [2] (additive concentration 1 mM) was “No Improvement” in each case. In addition, the Results entry in experiment [2] (additive concentration 10 mM) was “No Improvement”.
Turning to `NCCCC[C@H](N)C(=O)O` [Lysine], the Results result in experiment [2] (additive concentration 0.0687 mM), in experiment [2] (additive concentration 0.687 mM) and in experiment [2] (additive concentration 6.87 mM) was “No Improvement” throughout.
Consider `[F-].[Na+]` [Sodium Fluoride], for which the Results result in experiment [2] (additive concentration 85 uM) and in experiment [2] (additive concentration 850 uM) was “No Improvement” in each case.
Turning to `O=c1[nH]c(=O)c2[nH]c(=O)[nH]c2[nH]1` [Uric Acid], the Results entry in experiment [2] (additive concentration 0.6 uM), in experiment [2] (additive concentration 6 uM) and in experiment [2] (additive concentration 60 uM) was “No Improvement” each time.
Turning to `CCCCn1cc[n+](C)c1.[Cl-]` [1-Butyl-3-methylimidazoium Chloride], the Results result in experiment [2] (additive concentration 0.01 mM), in experiment [2] (additive concentration 0.1 mM) and in experiment [2] (additive concentration 1 mM) was “No Improvement” in each case.
Turning to `C1N2CN3CN1CN(C2)C3` [Hexamethylenetetramine], the Results entry in experiment [2] (additive concentration 14 mM), in experiment [2] (additive concentration 140 mM) and in experiment [2] (additive concentration 500 mM) was “No Improvement” each time.
`O.O=c1cc(-c2ccccc2)oc2c(O)c(O)ccc12` [7,8 dihydroxyflavone hydrate]: the values for the Results entry in experiment [2] (additive concentration 0.01 mM), in experiment [2] (additive concentration 0.1 mM) and in experiment [2] (additive concentration 1 mM) were “No Improvement”, “No improvement” and “No Improvement”, respectively.
Take `O=C(O)[C@@H](COP(=O)(O)O)OP(=O)(O)O` [Diphosphoglycerate (DPG)]: the Results result in experiment [2] (additive concentration 0.0005 mM), in experiment [2] (additive concentration 0.5 uM), in experiment [2] (additive concentration 0.002 mM), in experiment [2] (additive concentration 5 uM), in experiment [2] (additive concentration 50 uM) and in experiment [2] (additive concentration 1 mM) was “No Improvement” throughout.
Regarding `NCC(=O)O` [Glycine (no sample)], the Results entry in experiment [2] is “No improvement”.
On to `NC(N)=O` [Urea], for which the Results result in experiment [2] (additive concentration 25 uM), in experiment [2] (additive concentration 250 uM), in experiment [2] (additive concentration 500 uM), in experiment [2] (additive concentration 5 mM), in experiment [2] (additive concentration 50 mM) and in experiment [2] (additive concentration 100 mM) was “No Improvement” in each case.
On to `c1c[nH]cn1` [Imidazole], for which the Results result in experiment [2] (additive concentration 25 uM) and in experiment [2] (additive concentration 0.5 mM) was “No Improvement” in each case.
For `O=S(=O)([O-])CCCS(=O)(=O)[O-].[Na+].[Na+]` [Propanedisulfonic acid disodium salt], the Results result in experiment [2] (additive concentration 0.4 mM), in experiment [2] (additive concentration 4 mM) and in experiment [2] (additive concentration 40 mM) was “No Improvement” each time.
`O=S([O-])([O-])=S.[Na+].[Na+]` [Sodium Thiosulfate]: the Results result in experiment [2] was “No Improvement”.
On to `O=c1c(-c2ccc(O)cc2)coc2cc(O)ccc12` [Daidzein], for which the Results entry in experiment [2] (additive concentration 0.01 mM), in experiment [2] (additive concentration 0.1 mM) and in experiment [2] (additive concentration 1 mM) was “No Improvement” each time.
Regarding `NO` [Hydroxylamine], the Results entry in experiment [2] (additive concentration 25 uM) and in experiment [2] (additive concentration 0.5 mM) was “No Improvement” in each case.
For `O=C(O)CC(NCCNC(CC(=O)O)C(=O)O)C(=O)O` (centres unmarked), the Results result in experiment [2] (additive concentration 10 uM), in experiment [2] (additive concentration 100 uM), in experiment [2] (additive concentration 1 mM) and in experiment [2] (additive concentration 10 mM) was “No Improvement” each time.
